From US8669249B2, “Poly (ADP-ribose) polymerase (PARP) inhibitors” (Takeda Pharmaceutical Company Limited, priority 2009, dated 2014)

Target: T1, catalytic domain of Human PARP (Homo sapiens, UniProt P09874)
T1 construct: The catalytic domain of Human PARP was cloned and prepared; made in house
Assay: Biacore surface plasmon resonance affinity assay
Format: binding
Settings: pKD=-log10 KD, KD in mol/L; Biacore T100, 25° C.; read-out: pKD (converted)
Protocol: Dissociation Constant (KD) from Surface Plasmon Resonance
The catalytic domain of Human PARP was cloned and prepared as described in Kinoshita, et al. FEBS Letters (2006), 556:43-46. Purified enzyme was stored at −80° C. in 25 mM Tris(hydroxymethyl)aminomethane (‘Tris’) pH 7.4, 150 mM NaCl, 2 mM dithiothreitol (DTT) at a concentration of 6 mg/mL.
Biacore affinity assays for test compounds were conducted on a Biacore T100 (GE Healthcare) as follows. A Series S Sensor Chip CM5 (part number BR-1006-68, GE Healthcare) was activated for amide coupling with an Amine Coupling Kit (part number BR-1000-50, GE Healthcare) as described by the manufacturer. The mobile phase buffer consisted of Biacore buffer HBS-P (part number BR-1003-68, GE Healthcare) supplemented with 1% v/v dimethylsulfoxide (DMSO), 0.5 mM Tris(2-carboxyethyl)phosphine hydrochloride (TCEP), and 5 mM MgCl2. Enzyme samples (2 μL/6 mg/mL) stored at −80° C. were diluted to 0.080 mg/mL with 10 mM 4-morpholineethanesulfonic acid (MES) pH 6.5 and then mounted on the activated Biacore CM5 chip at a flow rate of 10 μL/min for 240 seconds. […] Test compounds were diluted 9 times 2-fold serially in mobile phase buffer (listed above) at 1% v/v DMSO final to generate a concentration gradient bracketing their anticipated KDs. Biacore mounted PARP was given a 1 minute exposure (association phase) to various concentrations of test compounds to observe a steady state equilibrium or an on-rate. The exposure was followed with a dissociation phase of 5 minutes. The association and dissociation phases were at a flow rate of 50 μL/min and a temperature of 25° C.
Parameters Rmax (response at saturation) and KD (binding constant) were calculated through a nonlinear least squares fitting of the equation to the data by use of the Biacore T100 analysis software.
Parameter optimization was through a nonlinear least squares analysis of the association phase Response=Rmax*(1−exp(−(kon[cmpd]+koff)*t)) and dissociation phase Response=[…] by use of the Biacore T100 analysis software. The binding constant KD was calculated from the definition KD=koff/kon

T1 sequence (P09874 788-1014 limits assumed): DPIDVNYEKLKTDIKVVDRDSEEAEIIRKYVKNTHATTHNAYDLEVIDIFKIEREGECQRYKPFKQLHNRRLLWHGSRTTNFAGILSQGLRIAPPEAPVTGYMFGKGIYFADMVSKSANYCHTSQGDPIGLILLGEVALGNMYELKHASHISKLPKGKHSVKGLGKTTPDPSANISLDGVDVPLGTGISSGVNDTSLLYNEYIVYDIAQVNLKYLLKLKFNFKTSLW

SMILES | Kd
CC1Oc2ccc(CN(C)CC(=O)O)cc2NC1=O (centres unmarked) [Compound 132, 2-(Methyl((2-methyl-3-oxo-3,4-dihydro-2H-benzo[b][1,4]oxazin-6-yl)methyl)amino)acetic acid] | 1.26 to 10 µM
CC1Oc2ccc(CN(C)CC(=O)NCc3ccccc3)cc2NC1=O (centres unmarked) [Compound 134, N-Benzyl-2-(methyl((2-methyl-3-oxo-3,4-dihydro-2H-benzo[b][1,4]oxazin-6-yl)methyl)amino)acetamide] | 1.26 to 10 µM
CC1Oc2ccc(CN(C)CC(=O)N(C)Cc3ccccc3)cc2NC1=O (centres unmarked) [Compound 135, N-Benzyl-N-methyl-2-(methyl((2-methyl-3-oxo-3,4-dihydro-2H-benzo[b][1,4]oxazin-6-yl)methyl)amino)acetamide] | 12.6 to 79.4 µM
CC1Oc2ccc(CN(C)CC(=O)NCc3ccc(Cl)cc3)cc2NC1=O (centres unmarked) [Compound 136, N-(4-Chlorobenzyl)-2-(methyl((2-methyl-3-oxo-3,4-dihydro-2H-benzo[b][1,4]oxazin-6-yl)methyl)amino)acetamide] | 1.26 to 10 µM
CC1Oc2ccc(CN(C)CC(=O)N(C)Cc3ccc(Cl)cc3)cc2NC1=O (centres unmarked) [Compound 137, N-(4-Chlorobenzyl)-N-methyl-2-(methyl((2-methyl-3-oxo-3,4-dihydro-2H-benzo[b][1,4]oxazin-6-yl)methyl)amino)acetamide] | ≥ 100 µM
CC1Oc2ccc(CN(C)CC(=O)N3CCCCC3)cc2NC1=O (centres unmarked) [Compound 138, 2-Methyl-6-((methyl(2-oxo-2-(piperidin-1-yl)ethyl)amino)methyl)-2H-benzo[b][1,4]oxazin-3(4H)-one] | 12.6 to 79.4 µM
CC1Oc2ccc(CN(C)CC(=O)NCC3CCCCC3)cc2NC1=O (centres unmarked) [Compound 140, N-(Cyclohexylmethyl)-2-(methyl((2-methyl-3-oxo-3,4-dihydro-2H-benzo[b][1,4]oxazin-6-yl)methyl)amino)acetamide] | 1.26 to 10 µM
CC1Oc2ccc(-c3cccc(C(=O)N4CCCC4)c3)cc2NC1=O (centres unmarked) [Compound 145, 2-Methyl-6-(3-(pyrrolidine-1-carbonyl)phenyl)-2H-benzo[b][1,4]oxazin-3(4H)-one] | > 10 µM
CC1Oc2ccc(-c3cccc(C(=O)N4CCOCC4)c3)cc2NC1=O (centres unmarked) [Compound 146, 2-Methyl-6-(3-(morpholine-4-carbonyl)phenyl)-2H-benzo[b][1,4]oxazin-3(4H)-one] | > 10 µM
CC1Oc2ccc(-c3cccc(C(=O)NCc4ccccc4)c3)cc2NC1=O (centres unmarked) [Compound 147, N-Benzyl-3-(2-methyl-3-oxo-3,4-dihydro-2H-benzo[b][1,4]oxazin-6-yl)benzamide] | > 10 µM
CC(C)NS(=O)(=O)c1cccc(-c2ccc3c(c2)NC(=O)C(C)O3)c1 (centres unmarked) [Compound 149, N-Isopropyl-3-(2-methyl-3-oxo-3,4-dihydro-2H-benzo[b][1,4]oxazin-6-yl)benzenesulfonamide] | > 10 µM

Continued, values first:

Kd | SMILES
1.26 to 10 µM | CC1Oc2ccc(-c3cccc(C(=O)O)c3)cc2NC1=O (centres unmarked) [Compound 141, 3-(2-methyl-3-oxo-3,4-dihydro-2H-benzo[b][1,4]oxazin-6-yl)benzoic acid]
1.26 to 10 µM | CC1Oc2ccc(-c3cccc(C(N)=O)c3)cc2NC1=O (centres unmarked) [Compound 142, 3-(2-Methyl-3-oxo-3,4-dihydro-2H-benzo[b][1,4]oxazin-6-yl)benzamide]
> 10 µM | CNC(=O)c1cccc(-c2ccc3c(c2)NC(=O)C(C)O3)c1 (centres unmarked) [Compound 143, N-Methyl-3-(2-methyl-3-oxo-3,4-dihydro-2H-benzo[b][1,4]oxazin-6-yl)benzamide]
12.6 to 79.4 µM | CCNC(=O)c1cccc(-c2ccc3c(c2)NC(=O)C(C)O3)c1 (centres unmarked) [Compound 144, N-Ethyl-3-(2-methyl-3-oxo-3,4-dihydro-2H-benzo[b][1,4]oxazin-6-yl)benzamide]
> 10 µM | CC(=O)Nc1cccc(-c2ccc3c(c2)NC(=O)C(C)O3)c1 (centres unmarked) [Compound 148, N-(3-(2-Methyl-3-oxo-3,4-dihydro-2H-benzo[b][1,4]oxazin-6-yl)phenyl)acetamide]
> 10 µM | CC1Oc2ccc(-c3ccc(C(N)=O)cc3)cc2NC1=O (centres unmarked) [Compound 150, 4-(2-Methyl-3-oxo-3,4-dihydro-2H-benzo[b][1,4]oxazin-6-yl)benzamide]
